Values after ≈ are worked out from the molar mass of the structure shown. Non-standard residues stand in square brackets, D forms with d. Residues, ends and D or L forms follow the SMILES beside them. Bip = N[C@@H](Cc1ccc(-c2ccccc2)cc1)C(=O)O
How the values were obtained:
E. faecium V284-17 = assay type: cell-based, Enterococcus faecium; conditions: V284-17
K. pneumoniae E406-17 = assay type: cell-based, Klebsiella pneumoniae; conditions: E406-17
Procedure: (§1) The antibiotic-resistant pathogens used in this study include the Gram-positive bacteria Enterococcus faecium V286-17 and Staphylococcus aureus USA300 LAC and the Gram-negative bacteria Klebsiella pneumoniae E406-17, Acinetobacter baumannii B28-16, Pseudomonas aeruginosa E411-17, and Escherichia coli E423-17. All bacteria were cultivated in tryptic soy broth (TSB) at 37 °C, 220 rpm.
(§2) The antibacterial activity of peptides was evaluated using a standard broth microdilution protocol with minor modifications. In brief, peptides were made at various concentrations, 10 μL per well in a 96-well polystyrene microplate. Logarithmic phase bacterial cultures (i.e., optical density (OD) at 600 nm ≈ 0.5) were diluted to 0.001 OD, and aliquots of 90 μL were added to each well. Untreated bacterial culture and medium were included as positive and negative controls, respectively. Plates were incubated at 37 °C overnight and read at 630 nm using a ChroMate Microplate Reader (Awareness Technology, Palm City, FL, USA). […] Our previously designed peptide 17BIPHE2 [32] was included as a positive control, and RI-10, a peptide without antibacterial activity in rich media, was utilized as a negative control.

[1] = test system: clinical and antibiotic-resistant pathogens (panel of Table 3); assay type: cell-based; conditions: all six pathogens
Procedure: as §1, §2

[2] = test system: A. baumannii B28-16 preformed biofilms; assay: Disruption of preformed biofilms (XTT); assay type: cell-based, Acinetobacter baumannii
Procedure: (§3) The antibiofilm activities of peptides against the preformed biofilms of A. baumannii B28-16 and S. aureus USA300 LAC were evaluated as follows. Bacteria in the logarithmic growth phase were adjusted to a cell density of 10^5 colony forming unit (CFU)/mL. Two hundred microliter cells were seeded into each well of the 96-well plates. The plates were incubated at 37 °C to allow for the formation of biofilm for 24, 48, and 72 h, respectively. The planktonic cells were then removed, followed by a wash. The biofilms were then treated with 20 µL of 10× two-fold diluted peptides and 180 µL of fresh TSB media for 24 h at 37 °C. Cultures treated with water without peptide served as the positive control, and media treated with water was used as the negative control. To quantify the antibiofilm activity of the peptides, the XTT [2, 3-bis (2-methyloxy-4-nitro-5-sulfophenyl)-2H-tertazolium-5-carboxanilide] assay staining method was used to quantitate the live cells. Absorbance was read at 450 nm using a ChroMate microliter plate reader. The percentage biofilm growth for the peptide was plotted by assuming 100% biofilm growth in untreated bacterial control wells. Data were represented as mean ± standard deviation (SD). The data are statistically significant at p < 0.05. Plots were generated using GraphPad Prism v7 (GraphPad Software, San Diego, CA, USA).

[3] = test system: S. aureus USA300 LAC preformed biofilms; assay: Disruption of preformed biofilms (XTT); assay type: cell-based, Staphylococcus aureus
Procedure: as §3

S. aureus USA300 LAC = assay: Membrane permeabilization (propidium iodide); assay type: cell-based, Staphylococcus aureus; conditions: peptide 8 µM; propidium iodide fluorescence, 2 h, PBS, 37 °C
Procedure: (§4) Membrane permeabilization was evaluated as described. In brief, bacteria were inoculated and grown overnight. A second inoculation was made and let bacteria grow to the exponential phase. Bacteria were then spun, washed, and resuspended in the same volume of PBS. A series of peptide solutions (10×) was made via two-fold dilution in a 96-well plate (10 µL each). All wells were aliquoted with 2 µL of propidium iodide (20 µM), followed by adding 88 µL of S. aureus USA300 or A. baumannii B28-16 (OD600 ~0.11 in PBS). The plate was incubated at 37 °C with continuous shaking at 100 rpm in a FLUOstar Omega microplate reader (BMG Labtech Inc., Cary, NC, USA). Fluorescence was recorded every 5 min for 2 h with excitation and emission wavelengths of 485 and 620 nm. The data were analyzed by the vendor’s software using averaged values from duplicated experiments.

A. baumannii B28-16 = assay: Membrane permeabilization (propidium iodide); assay type: cell-based, Acinetobacter baumannii; conditions: peptide 16 µM; propidium iodide fluorescence, 2 h, PBS, 37 °C
Procedure: as §4

CC(C)C[C@H](NC(=O)[C@H](CC(N)=O)NC(=O)[C@H](CCCNC(=N)N)NC(=O)[C@@H](CC(C)C)NC(=O)[C@H](Cc1ccc(-c2ccccc2)cc1)NC(=O)[C@H](CC(=O)O)NC(=O)[C@H](CCCCN)NC(=O)[C@@H](CC(C)C)NC(=O)[C@H](CCCNC(=N)N)NC(=O)[C@H](CCC(N)=O)NC(=O)[C@@H](NC(=O)[C@@H](CC(C)C)NC(=O)[C@H](CCCNC(=N)N)NC(=O)[C@H](CCCCN)NC(=O)[C@H](Cc1ccc(-c2ccccc2)cc1)NC(=O)CN)C(C)C)C(=O)N[C@H](C(N)=O)C(C)C [Peptide 17BIPHE2] (H-G[Bip]KR[dL]VQR[dL]KD[Bip][dL]RNLV-NH2; N-terminus assumed)
MIC (E. faecium V284-17): 2 µM (≈ 4.51 µg/mL)
MIC (K. pneumoniae E406-17): 4 to 8 µM
MIC range over the pathogens of Table 3 [1]: 2 to 8 µM
Biofilm disruption ([2]; 72 h preformed biofilms, peptide 64 μM, highest concentration tested): ~ 70%
Disruption of 48 h biofilms ([2]; biofilms established for 48 h, 24 h treatment): dose-dependent biofilm disruption
Reduction of 24 h biofilms ([2]; biofilms established in 24 h, 24 h treatment): dose-dependent manner
Antibiofilm effect on 24 h preformed biofilms ([3]; 24 h preformed biofilms of S. aureus USA300, XTT): antibiofilm effect in a dose-dependent manner
Staphylococcal biofilm remaining (reduced to) ([3]; 24 h preformed biofilms, peptide 32 μM, relative to untreated control = 100%): ~ 25%
Membrane permeation (S. aureus USA300 LAC): more powerful
Membrane permeation (A. baumannii B28-16): superior to SK-24

Reference: publication PMC8703873, “Structure and Activity of a Selective Antibiofilm Peptide SK-24 Derived from the NMR Structure of Human Cathelicidin LL-37” (Pharmaceuticals, 2021)
